{"source": "paper PMC12016938", "about": "“A small molecule PKCε inhibitor reduces hyperalgesia induced by paclitaxel or opioid withdrawal” (JCI Insight, 2025)", "key": {"PKCη": {"target": "T1, PKCη (Homo sapiens, UniProt P24723)", "T1 construct": "purchased Eurofins-DiscoverX", "T1 sequence (P24723 whole entry)": "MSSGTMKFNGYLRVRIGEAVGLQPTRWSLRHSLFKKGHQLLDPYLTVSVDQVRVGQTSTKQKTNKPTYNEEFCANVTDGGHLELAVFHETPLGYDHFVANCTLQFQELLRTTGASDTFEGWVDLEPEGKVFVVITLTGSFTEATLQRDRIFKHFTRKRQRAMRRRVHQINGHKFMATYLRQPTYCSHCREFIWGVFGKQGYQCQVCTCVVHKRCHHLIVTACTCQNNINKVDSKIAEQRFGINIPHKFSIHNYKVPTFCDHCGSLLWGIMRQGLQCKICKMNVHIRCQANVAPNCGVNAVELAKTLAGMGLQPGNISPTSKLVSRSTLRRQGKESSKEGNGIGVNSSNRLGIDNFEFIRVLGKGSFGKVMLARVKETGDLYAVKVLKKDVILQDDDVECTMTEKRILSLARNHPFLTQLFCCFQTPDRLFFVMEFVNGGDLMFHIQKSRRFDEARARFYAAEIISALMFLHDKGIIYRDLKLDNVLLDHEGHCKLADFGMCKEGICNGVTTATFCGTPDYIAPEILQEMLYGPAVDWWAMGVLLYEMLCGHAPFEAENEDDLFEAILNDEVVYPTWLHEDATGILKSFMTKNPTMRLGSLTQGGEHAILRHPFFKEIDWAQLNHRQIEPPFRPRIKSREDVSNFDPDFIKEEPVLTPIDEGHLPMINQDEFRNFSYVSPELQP", "experiment": "scanMax kinome panel, PKCη", "type": "binding", "settings": "200 nM CP612; read-out: scanMax % of control, PKCη", "description": "CP612 was screened for kinome specificity at 200 nM against 468 kinases using the scanMax assay panel from Eurofins-DiscoverX. CP612 inhibited 10 other WT kinases besides PKCε, all to < 10% of control: CLK1 (CDC Like Kinase 1), CLK4, PKN1 (Protein kinase N1), PKN2, PKCδ, PKCη, PKCθ, PRKG2 (Protein Kinase CGMP-Dependent 2), ROCK1, and ROCK2."}, "PKCθ": {"target": "PKCθ (Homo sapiens, UniProt Q04759)", "sequence (Q04759 whole entry)": "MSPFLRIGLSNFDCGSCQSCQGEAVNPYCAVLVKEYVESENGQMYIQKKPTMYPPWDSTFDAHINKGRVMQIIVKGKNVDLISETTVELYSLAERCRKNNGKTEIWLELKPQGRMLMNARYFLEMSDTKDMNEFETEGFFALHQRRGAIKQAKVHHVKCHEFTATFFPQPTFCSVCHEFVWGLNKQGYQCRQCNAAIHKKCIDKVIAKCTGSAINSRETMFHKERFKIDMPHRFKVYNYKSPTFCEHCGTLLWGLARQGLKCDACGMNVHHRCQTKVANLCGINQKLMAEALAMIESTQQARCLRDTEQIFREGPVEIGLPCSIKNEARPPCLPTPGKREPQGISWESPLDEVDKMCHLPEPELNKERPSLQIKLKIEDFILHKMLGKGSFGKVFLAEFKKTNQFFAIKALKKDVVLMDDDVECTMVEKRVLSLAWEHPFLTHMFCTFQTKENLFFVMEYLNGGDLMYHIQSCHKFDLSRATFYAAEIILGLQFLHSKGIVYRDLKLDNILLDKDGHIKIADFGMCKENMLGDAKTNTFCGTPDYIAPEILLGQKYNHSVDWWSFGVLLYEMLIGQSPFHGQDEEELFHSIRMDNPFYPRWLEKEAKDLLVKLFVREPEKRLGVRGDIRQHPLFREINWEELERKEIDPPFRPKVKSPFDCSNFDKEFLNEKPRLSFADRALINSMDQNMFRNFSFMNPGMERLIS", "experiment": "Lance-FRET kinase assay, PKCθ", "type": "biochemical", "design": "purchased SignalChem Biotech", "description": "Kinase assays. CP612 was assayed against His-AVI–tagged human PKCε (1 nM) produced in Sf9 cells, and ROCK1 (Carna Biosciences; 5 nM) using the Lance-FRET kinase assay system (PerkinElmer Revvity). Other human recombinant PKCs (SignalChem Biotech) were assayed in triplicate at the following concentrations: PKCβII 1.6 nM, PKCγ 500 pM, PKCδ 5 nM, PKCθ 500 pM, and PKCζ 500 pM. PKCs were incubated in a 15 μL reaction volume with kinase buffer (20 mM Tris-HCL [pH 7.4], 10 mM MgCl2, 0.25 mM EGTA, 0.1 mg/mL BSA, and 0.15% Triton X-100), 50 nM ULight-labeled CREBtide […] (PerkinElmer, TRF0107, Revvity), and test compound. […] After incubation at 27°C for another 60 minutes, phosphorylation was detected using a FlexStation 3 Microplate Reader (Molecular Devices) in LANCE TR-FRET mode (excitation = 340 nm, emission = 665 nm) and expressed as relative fluorescence units (RFU). The percentage of inhibition was calculated as: (signal without test compound − signal with test compound)/(signal without test compound − signal without ATP) × 100. […]\nKinase assays used 11-point concentration-response curves and results were analyzed by nonlinear regression using Prism 9 (GraphPad Software) to determine IC50 values. […] Scores for pain threshold, conditioned place preference, and self-administration were analyzed by ANOVA using the following factors. […]"}, "PKCε": {"target": "T2, PKCε (Homo sapiens, UniProt Q02156)", "T2 sequence (Q02156 1-737)": "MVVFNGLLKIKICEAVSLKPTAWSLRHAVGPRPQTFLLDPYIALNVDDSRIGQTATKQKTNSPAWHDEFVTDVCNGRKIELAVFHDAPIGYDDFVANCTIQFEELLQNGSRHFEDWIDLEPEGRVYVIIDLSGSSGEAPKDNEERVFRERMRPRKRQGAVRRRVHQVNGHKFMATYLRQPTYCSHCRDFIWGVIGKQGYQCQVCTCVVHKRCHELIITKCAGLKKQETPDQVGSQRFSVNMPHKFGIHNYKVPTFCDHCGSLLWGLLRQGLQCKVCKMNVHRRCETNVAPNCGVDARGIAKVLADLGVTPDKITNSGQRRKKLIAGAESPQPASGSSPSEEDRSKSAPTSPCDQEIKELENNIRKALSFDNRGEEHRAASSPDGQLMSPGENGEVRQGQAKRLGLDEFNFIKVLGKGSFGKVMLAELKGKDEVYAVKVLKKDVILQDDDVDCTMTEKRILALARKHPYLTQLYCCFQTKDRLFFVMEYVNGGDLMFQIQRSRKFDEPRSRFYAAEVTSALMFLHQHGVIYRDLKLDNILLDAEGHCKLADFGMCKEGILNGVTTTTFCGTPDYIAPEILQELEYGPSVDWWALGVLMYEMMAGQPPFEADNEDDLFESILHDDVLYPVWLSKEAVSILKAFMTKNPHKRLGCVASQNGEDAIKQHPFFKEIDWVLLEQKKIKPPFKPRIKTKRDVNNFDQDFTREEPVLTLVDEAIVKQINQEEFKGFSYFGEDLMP", "experiment": "Lance-FRET kinase assay, PKCε", "type": "biochemical", "design": "His; AVI; made in house; host or cells: Sf9 cells", "description": "Kinase assays. CP612 was assayed against His-AVI–tagged human PKCε (1 nM) produced in Sf9 cells, and ROCK1 (Carna Biosciences; 5 nM) using the Lance-FRET kinase assay system (PerkinElmer Revvity). Other human recombinant PKCs (SignalChem Biotech) were assayed in triplicate at the following concentrations: PKCβII 1.6 nM, PKCγ 500 pM, PKCδ 5 nM, PKCθ 500 pM, and PKCζ 500 pM. PKCs were incubated in a 15 μL reaction volume with kinase buffer (20 mM Tris-HCL [pH 7.4], 10 mM MgCl2, 0.25 mM EGTA, 0.1 mg/mL BSA, and 0.15% Triton X-100), 50 nM ULight-labeled CREBtide […] (PerkinElmer, TRF0107, Revvity), and test compound. Reactions were initiated by adding 2.5 μM ATP at 27°C and were terminated after 60 minutes with 10 μL of 2.5× Stop Solution/Detection Mix containing 20 mM EDTA and 4 nM LANCE Ultra Europium anti–phospho-[…] (Ala25Ser) peptide antibody (PerkinElmer, TRF0200, Revvity). After incubation at 27°C for another 60 minutes, phosphorylation was detected using a FlexStation 3 Microplate Reader (Molecular Devices) in LANCE TR-FRET mode (excitation = 340 nm, emission = 665 nm) and expressed as relative fluorescence units (RFU). The percentage of inhibition was calculated as: (signal without test compound − signal with test compound)/(signal without test compound − signal without ATP) × 100. The Z’ factor for this assay ranged between 0.72 and 0.86.\nKinase assays used 11-point concentration-response curves and results were analyzed by nonlinear regression using Prism 9 (GraphPad Software) to determine IC50 values. Other analyses were performed on Prism 9 and Statistica (Tibco Software). Scores for pain threshold, conditioned place preference, and self-administration were analyzed by ANOVA using the following factors. […] We used a Tukey’s test for post hoc comparisons across groups and Dunnett’s test for post hoc comparisons with own pain thresholds at baseline values in the pain studies. Somatic withdrawal scores were analyzed with a Kruskal-Wallis test due to the nonparametric nature of those data, followed by nonparametric post hoc comparisons according to Siegel and Castellan ([40]). A P value less than 0.05 was considered significant."}, "[1]": {"system": "paclitaxel-induced hyperalgesia", "experiment": "Paclitaxel-induced hyperalgesia, Randall-Selitto paw pressure test", "settings": "for Force applied that led to paw withdrawal: one paw", "protocol": "We tested if CP612 reverses this hyperalgesia. Male rats received repeated injections of paclitaxel (1 mg/kg, i.p. on days 1, 3, 5, and 7). Twenty-four hours after the last dose of paclitaxel, rats were administered vehicle (2 mL/kg, i.p.) or CP612 (20 mg/kg, i.p.).\nMechanical nociceptive thresholds in rats were quantified by the Randall-Selitto paw pressure test using an Ugo Basile Analgesy-Meter. This device applies a linearly increasing mechanical force to the dorsum or plantar region of the rat hind paw. The mechanical nociceptive threshold is defined as the force in grams at which a rat withdraws its paw. The higher the force to elicit paw withdrawal, the higher the pain threshold (and the lower the sensitivity to pain). For studies testing nociceptive thresholds after the PKCε activator ψεRACK, or after the cancer chemotherapeutic drug paclitaxel, rats were placed into cylindrical acrylic restrainers for 40 minutes before starting each session. The restrainers had lateral ports to allow access to the hind paw, as previously described ([35]), and pain thresholds were measured by applying force to the dorsum of the hind paw. Prior to starting experiments, baseline mechanical nociceptive threshold was obtained as the mean of 2–3 readings on 1 hind paw in each rat."}}, "note": "“And” between values parts separate entries of the source, which are not always exact repeats. Identical values can stand only once. Like-named read-outs stand apart in the source and are kept apart here."}
{"smiles": "N[C@H](CNC(=O)C1(c2ccc(Cl)cc2)CCCC1)c1ccc(C(=O)Nc2ccncc2)cc1", "note": "[CP612]", "values": [{"measurement": "remaining binding at 0.2 µM", "setting": "PKCη", "value": "< 10", "unit": "%"}, {"measurement": "inhibition at 0.03 µM", "setting": "PKCθ; 30 nM CP612, read-out: Inhibition of novel PKCs (PKCθ)", "value": "> 50", "unit": "%"}, {"measurement": "IC50", "setting": "PKCθ; Figure 1B PKC isozyme panel", "value": 30.7, "unit": "nM"}, {"measurement": "inhibition at 0.03 µM", "setting": "PKCε; 30 nM CP612, read-out: Inhibition of novel PKCs (PKCε)", "value": "> 50", "unit": "%"}, {"measurement": "Relative potency within the nPKC subfamily", "setting": "PKCε; Figure 1B", "value": "most potent"}, {"measurement": "IC50", "setting": "PKCε; Figure 1B PKC isozyme panel, read-out: IC50 PKCε", "value": 2.03, "unit": "nM"}, {"measurement": "IC50", "setting": "PKCε; mean of all runs (count 42 CP612; 38 CIDD-0072424), 2.5 μM ATP, read-out: IC50 (nM) [Enzyme: PKCε], mean", "value": "1.9 ± 0.4", "unit": "nM"}, {"measurement": "ROCK1/PKCε ratio, mean", "setting": "PKCε; mean of ratios of all runs", "value": 54.8}, {"measurement": "Force applied that led to paw withdrawal", "setting": "[1]; 0min (24 h after last paclitaxel, before CP612)", "value": "95 grams and 102.5 grams and 100 grams and 97.5 grams and 101.7 grams"}, {"measurement": "Force applied that led to paw withdrawal", "setting": "[1]; 15min after CP612 20 mg/kg intraperitoneally, 20 mg/kg", "value": "120 grams and 125 grams and 110 grams and 115 grams and 117.5 grams"}, {"measurement": "Force applied that led to paw withdrawal", "setting": "[1]; 30min after CP612 20 mg/kg intraperitoneally, 20 mg/kg", "value": "110 grams and 122.5 grams and 117.5 grams and 112.5 grams"}, {"measurement": "Force applied that led to paw withdrawal", "setting": "[1]; 60min after CP612 20 mg/kg intraperitoneally, 20 mg/kg", "value": "111.7 grams and 120 grams and 116.7 grams and 113.3 grams and 121.7 grams"}, {"measurement": "Force applied that led to paw withdrawal", "setting": "[1]; 120min after CP612 20 mg/kg intraperitoneally, 20 mg/kg", "value": "101.7 grams and 116.7 grams and 111.7 grams and 103.3 grams and 96.7 grams and 115 grams"}, {"measurement": "Force applied that led to paw withdrawal", "setting": "[1]; 24h after CP612 20 mg/kg intraperitoneally, 20 mg/kg", "value": "85 grams and 116.7 grams and 90 grams and 91.7 grams and 96.7 grams"}, {"measurement": "Force applied that led to paw withdrawal", "setting": "[1]; baseline (before paclitaxel and CP612)", "value": "127.5 grams and 125 grams and 140 grams"}, {"measurement": "Effect on paclitaxel-induced hyperalgesia", "setting": "[1]; male rats, CP612 20 mg/kg i.p., 15, 30, 60 and 120 minutes", "value": "attenuated"}, {"measurement": "Decrease in paclitaxel-induced hyperalgesia 1 day after CP612", "setting": "[1]; male rats, CP612 20 mg/kg i.p., 24 hours", "value": "dissipated"}]}
